Data on 32 compounds can be found in patent US4552684A, “Dichroic dye and liquid crystalline composition for color display” (Mitsui Toatsu Chemicals, Inc., priority 1983, dated 1985).

What all share (format): physicochemical
Data set [1] in a line: solubility of dye in liquid crystals E-8. The following applies: for Solubility: in liquid crystals E-8 at 25° C. The procedure:
This is the solubility (% by weight) of each dye in liquid crystals E-8 (made by Merck & Co.) at 25° C.

Data set [2] in a line: light fastness (total current after exposure of cell to solar light for 200 hours). The following applies: for Light fastness: 0.5% by weight dye in E-8, solar light 200 hours, rectangular wave 6Vp-p, 32 Hz, total current. The procedure:
0.5% by weight of each dye was dissolved in the liquid crystals E-8, and the solution was sealed into a liquid crystal wall having a gap of 10 microns and including a pair of facing transparent electrodes with an area of 1.0 cm^2. The cell was exposed to solar light for 200 hours. Then, a voltage of a rectangular wave form (6Vp-p, 32 Hz) was applied, and the total current was measured (μA/cm^2).

A short description of the next data set: color of dye in toluene.
Data set [3] in a line: dichroic ratio of dye dissolved in liquid crystals (homogeneously aligned 10 micron cell). Particulars: for Dichroic ratio in liquid crystals E-8: Table 1 method: 1.0% by weight dye, 10 micron gap. The procedure:
The dichroic ratio is determined as follows:
The cell was placed in the light path of a spectro-photometer. Straight polarized light parallel to the alignment of the liquid crystals was applied to the cell, and the absorbance ([…] ) was measured. Furthermore, straight polarized light at right angles to the alignment of the liquid crystals was applied, and the absorbance ([…] ) was measured. The dichroic ratio was calculated from the following equation. [formula]

Data set [4] is described as follows: maximum absorption wavelength of dye in liquid crystals. As to the method: The crude dye was purified by the same column chromatographic technique as in Example 1 to give a blue dye having a melting point of 155° to 157° C. (Dye No.19 in Table 1). The dichroic ratio of the dye was measured in the liquid crystals E-8 in the same way as described above with regard to Table 1, and found to be 10.3 (λmax 616 nm). […] When liquid crystals ZLI-1840 were used instead of the liquid crystals E-8, the dichroic ratio of the dye was 10.8 (λmax 612 nm). When liquid crystals ZLI-1275 were used, the dichroic ratio was 10.1 (λmax 616 nm).

The nature of data set [5]: dichroic ratio and maximum absorption wavelength in cyanobiphenyl/cyanoterphenyl liquid crystal mixture. As to the method:
0.1 Part by weight of the dye No. 8 in Table 1 was dissolved in 10 parts by weight of a liquid crystal mixture composed of 43% of 4-n-pentyl-4'-cyano-biphenyl, 17% of 4-n-propoxy-4'-cyanobiphenyl, 13% of 4-n-pentoxy-4'-cyanobiphenyl, 17% of 4-n-octoxy-4'-cyanobiphenyl and 10% of 4-n-pentyl-4'-cyanoterphenyl. The resulting color liquid crystal mixture was sealed into a glass cell having a gap of 10 microns which had been subjected to homogeneous aligning treatment. The maximum absorption wavelength was 512 nm and the dichroic ratio was 10.2. A display device obtained by sealing this color liquid crystal mixture into a glass liquid crystal display element of the same structure as above including transparent electrodes assumed a red color entirely in the absence of a voltage applied, and when a voltage was applied, only the part of the electrodes became nearly colorless, thus showing a good contrast.

Compound `CN(C)c1ccc(N=Nc2ccc(N=Nc3ccccc3)cc2)cc1` [A, reference compound] yielded a Solubility in data set [1] of 1.1 % by weight. Also, the Light fastness in data set [2] was 4.2 μA/cm^2.

`CCCCc1ccc(Nc2cccc3c2C(=O)c2cccc(Nc4ccc(CCCC)cc4)c2C3=O)cc1` [B, reference compound] yielded a Solubility in data set [1] of 0.7 % by weight. Also, the Light fastness in data set [2] was 3.6 μA/cm^2.

Compound `Nc1c2c(c(O)c3oc(C4CCCCC4)nc13)C(=O)c1ccccc1C2=O` [C, reference compound] registered a Solubility in data set [1] of 0.4 % by weight.

Turning to `CCCCC1CCC(c2nc3c(N)c4c(c(O)c3o2)C(=O)c2ccccc2C4=O)CC1` (centres unmarked) [Dye No. 1], in “color of dye in toluene”, the Color in toluene entry is “Red”. Also, the “Dichroic ratio in liquid crystals E-8” value in data set [3] was found to be 9.5.

Turning to `CCCCCCCCCC1CCC(c2nc3c(N)c4c(c(O)c3o2)C(=O)c2c(N)cccc2C4=O)CC1` (centres unmarked) [Dye No. 2], the Color in toluene result in “color of dye in toluene” was “Violet”. For the same compound, the “Dichroic ratio in liquid crystals E-8” value in data set [3] stood at 8.2.

Turning to `CCCCCOC(=O)C1CCC(c2nc3cc4c(c(O)c3o2)C(=O)c2c(O)ccc(O)c2C4=O)CC1` (centres unmarked) [Dye No. 3], in “color of dye in toluene”, the Color in toluene result is listed as “Orange”. For the same compound, the “Dichroic ratio in liquid crystals E-8” value in data set [3] worked out at 9.3.

Regarding `CCCCC[C@H]1CC[C@H](c2nc3cc4c(c(O)c3o2)C(=O)c2ccccc2C4=O)CC1` [Dye No. 4], the Color in toluene entry in the data set “color of dye in toluene” is on record as “Yellow”. Besides, the “Dichroic ratio in liquid crystals E-8” value in data set [3] worked out at 7.2.

For the compound `CC(C)(C)c1ccc(C2CCC(c3nc4c(N)c5c(c(O)c4o3)C(=O)c3ccccc3C5=O)CC2)cc1` (centres unmarked) [Dye No. 5], the Color in toluene entry in “color of dye in toluene” is reported as “Red”. For the same compound, the “Dichroic ratio in liquid crystals E-8” value in data set [3] came to 10.1.

Turning to `CCCCOCCC1CCC(c2nc3c(Br)c4c(c(O)c3o2)C(=O)c2ccccc2C4=O)CC1` (centres unmarked) [Dye No. 6], the Color in toluene entry in the data set “color of dye in toluene” is reported as “Orange”. In addition, the “Dichroic ratio in liquid crystals E-8” value in data set [3] stood at 6.8.

For `CC(CCC1CCC(c2nc3c(O)c4c(c(O)c3o2)C(=O)c2ccccc2C4=O)CC1)CC(C)(C)C` (centres unmarked) [Dye No. 7], in “color of dye in toluene”, the Color in toluene result is “Orange”. Moreover, the “Dichroic ratio in liquid crystals E-8” value in data set [3] is 8.1.

For the compound `CCCCCC1CCC(c2nc3c(N)c4c(c(O)c3o2)C(=O)c2ccccc2C4=O)CC1` (centres unmarked) [Dye No. 8], the Color in toluene entry in the data set “color of dye in toluene” was “Red”. Also, the “Dichroic ratio in liquid crystals E-8” value in data set [3] was 9.5.

As to `CCCCCCCCCCCCC1CCC(c2nc3c(N)c4c(c(O)c3o2)C(=O)c2ccccc2C4=O)CC1` (centres unmarked) [Dye No. 9], the Color in toluene entry in “color of dye in toluene” was “Red”. In addition, the “Dichroic ratio in liquid crystals E-8” value in data set [3] is 9.3.

Turning to `CCCCCC1CCC(c2nc3c(N)c4c(c(N)c3o2)C(=O)c2ccccc2C4=O)CC1` (centres unmarked) [Dye No. 10], in the data set “color of dye in toluene”, the Color in toluene result is on record as “Reddish violet”. Also, the “Dichroic ratio in liquid crystals E-8” value in data set [3] was found to be 8.1.

With `CCCCCC1CCC(c2nc3cc4c(c(O)c3s2)C(=O)c2ccccc2C4=O)CC1` (centres unmarked) [Dye No. 11], the Color in toluene result in the data set “color of dye in toluene” was “Yellow”. Moreover, in data set [3], the “Dichroic ratio in liquid crystals E-8” value is on record as 8.5.

Regarding `CC(C)(C)C1CCC(c2nc3cc4c(c(O)c3s2)C(=O)c2ccccc2C4=O)CC1` (centres unmarked) [Dye No. 13], in the data set “color of dye in toluene”, the Color in toluene entry is given as “Yellow”. The “Dichroic ratio in liquid crystals E-8” value in data set [3] came out at 7.8.

Regarding `CCCCCCCCC1CCC(c2nc3c(N)c4c(c(O)c3o2)C(=O)c2c(N)ccc(O)c2C4=O)CC1` (centres unmarked) [Dye No. 14], the Color in toluene entry in “color of dye in toluene” is “Blue”. Besides, the “Dichroic ratio in liquid crystals E-8” value in data set [3] is reported as 10.5.

For the compound `CCCCCCCCCC1CCC(c2nc3c(N)c4c(c(O)c3o2)C(=O)c2cc(C)ccc2C4=O)CC1` (centres unmarked) [Dye No. 15], the Color in toluene result in “color of dye in toluene” is on record as “Red”. Moreover, in data set [3], the “Dichroic ratio in liquid crystals E-8” value came to 10.2.

Take `CCCCCCCC1CCC(c2nc3c(O)c4c(c(N)c3o2)C(=O)c2ccccc2C4=O)CC1` (centres unmarked) [Dye No. 16]: in the data set “color of dye in toluene”, the Color in toluene entry is “Red”. Further, in data set [3], the “Dichroic ratio in liquid crystals E-8” value amounted to 8.0.

For `CCCCCC1CCC(c2nc3cc4c(c(NC)c3o2)C(=O)c2ccccc2C4=O)CC1` (centres unmarked) [Dye No. 17], the Color in toluene entry in the data set “color of dye in toluene” is given as “Orange”. Also, in data set [3], the “Dichroic ratio in liquid crystals E-8” value is given as 6.9.

As for `CCCCCC1CCC(c2nc3cc4c(c(O)c3o2)C(=O)c2c(O)ccc(O)c2C4=O)CC1` (centres unmarked) [Dye No. 18], the Color in toluene entry in “color of dye in toluene” is “Orange”. For the same compound, the “Dichroic ratio in liquid crystals E-8” value in data set [3] stood at 9.8.

As for `CC(CC[C@H]1CC[C@H](c2nc3c(N)c4c(c(O)c3o2)C(=O)c2c(N)ccc(O)c2C4=O)CC1)CC(C)(C)C` (some centres unmarked) [Dye No. 19], in the data set “color of dye in toluene”, the Color in toluene result is “Blue”. Moreover, in data set [3], the “Dichroic ratio in liquid crystals E-8” value is reported as 10.3.

Take `CCCCCCCC1CCC(c2nc3cc4c(c(O)c3o2)C(=O)c2c(NC)ccc(NC)c2C4=O)CC1` (centres unmarked) [Dye No. 20]: the Color in toluene result in “color of dye in toluene” was “Blue”. In data set [3], the “Dichroic ratio in liquid crystals E-8” value is listed as 9.2.

In the case of `CCCCCC1CCC(c2nc3cc4c(c(O)c3o2)C(=O)c2ccc(CC(C)C)c(O)c2C4=O)CC1` (centres unmarked) [Dye No. 21], the Color in toluene result in “color of dye in toluene” is listed as “Orange”. For the same compound, in data set [3], the “Dichroic ratio in liquid crystals E-8” value was found to be 8.1.

For `CC(C)(C)CC(C)(C)[C@H]1CC[C@H](c2nc3c(N)c4c(c(O)c3o2)C(=O)c2c(O)cccc2C4=O)CC1` [Dye No. 22], the Color in toluene result in “color of dye in toluene” is reported as “Reddish violet”. Further, the “Dichroic ratio in liquid crystals E-8” value in data set [3] came out at 11.6.

For the compound `CCCCOC(=O)C1CCC(c2nc3c(N)c4c(c(O)c3o2)C(=O)c2c(O)cccc2C4=O)CC1` (centres unmarked) [Dye No. 23], the Color in toluene entry in “color of dye in toluene” is recorded as “Reddish violet”. Further, in data set [3], the “Dichroic ratio in liquid crystals E-8” value is 8.2.

Regarding `CCCCCCCC1CCC(c2nc3c(N)c4c(c(O)c3o2)C(=O)c2ccc(C(=O)OCCCC)cc2C4=O)CC1` (centres unmarked) [Dye No. 24], the Color in toluene result in “color of dye in toluene” was “Reddish violet”. The “Dichroic ratio in liquid crystals E-8” value in data set [3] was determined as 8.6.

As for `CCCCCCCC1CCC(c2nc3c(N)c4c(c(N)c3o2)C(=O)c2ccc(C(=O)OCCCC)cc2C4=O)CC1` (centres unmarked) [Dye No. 25], in “color of dye in toluene”, the Color in toluene result is on record as “Reddish violet”. Also, in data set [3], the “Dichroic ratio in liquid crystals E-8” value amounted to 9.3.

Turning to `CCCCc1ccc(OC(=O)C2CCC(c3nc4c(Cl)c5c(c(O)c4o3)C(=O)c3c(Cl)ccc(O)c3C5=O)CC2)cc1` (centres unmarked) [Dye No. 26], the Color in toluene result in the data set “color of dye in toluene” is reported as “Orange”. Further, in data set [3], the “Dichroic ratio in liquid crystals E-8” value was found to be 8.0.

On to `CCCCc1ccc(OC(=O)C2CCC(c3nc4c(N)c5c(c(O)c4o3)C(=O)c3c(N)ccc(O)c3C5=O)CC2)cc1` (centres unmarked) [Dye No. 27], for which the Color in toluene entry in the data set “color of dye in toluene” was “Blue”. Besides, the “Dichroic ratio in liquid crystals E-8” value in data set [3] was 9.2.

Regarding `CC(CC[C@H]1CC[C@H](c2nc3c(N)c4c(c(O)c3o2)C(=O)c2c(N)ccc(O)c2C4=O)CC1)CC(C)(C)C` (some centres unmarked) [No.19], the figures for the λmax in data set [4] (liquid crystals E-8), in data set [4] (liquid crystals ZLI-1275) and in data set [4] (liquid crystals ZLI-1840) were 616 nm, 616 nm and 612 nm, respectively. Besides, the “solubility in E-8” value in data set [1] (liquid crystals E-8, temperature not stated (Example 5)) is on record as 7.2 % by weight. The dichroic ratio in data set [3] (liquid crystals ZLI-1275) is on record as 10.1; in data set [3] (liquid crystals ZLI-1840), 10.8.

As for `CCCCCC1CCC(c2nc3c(N)c4c(c(O)c3o2)C(=O)c2ccccc2C4=O)CC1` (centres unmarked) [No. 8], in data set [5] (0.1 part dye in 10 parts cyanobiphenyl/cyanoterphenyl mixture (Example 4)), the dichroic ratio came out at 10.2. Moreover, the maximum absorption wavelength in data set [5] (cyanobiphenyl/cyanoterphenyl mixture (Example 4)) is 512 nm. For the same compound, the Solubility in data set [1] came out at 4.7 % by weight. Also, in data set [1] (liquid crystals E-8), the “solubility compared with known dyes A, B and C” value was “higher solubility”. Further, in data set [2], the Light fastness was 2.0 μA/cm^2. Further, in data set [2] (as in Table 2), the “light fastness compared with known dyes” value was “higher solubility and light fastness than known dyes A, B and C”.

Regarding `CC(C)(C)CC(C)(C)[C@H]1CC[C@H](c2nc3c(N)c4c(c(O)c3o2)C(=O)c2c(O)cccc2C4=O)CC1` [No. 22], in data set [1] (liquid crystals E-8, temperature not stated (Example 7)), the “solubility in liquid crystals E-8” value is recorded as 4.0%. Further, in data set [3] (liquid crystals ZLI-1840), the dichroic ratio is listed as 12.3.
